Laboratory results published in US5789654A, “Transgenic animals deficient in endogenous β3 -adrenergic receptor and uses thereof” (Beth Israel Hospital Association, priority 1996, dated 1998).
Like-named read-outs stand apart in the source and are kept apart here.

Tests used:
[1] = target: T1, human β3 -AR (Homo sapiens, UniProt P13945); experiment: O2 consumption in knockout mice expressing the reconstituted human β3 -AR; assay type: in vivo, mouse; conditions: 10 mg/ml
T1 construct: reconstituted with an 80 kb β3 -AR human genomic clone; expressed in transfected cells; host or cells: transgenic beta-3-AR-deficient mice (human genomic P1 insert injected into zygotes; mRNA detected in brown adipose tissue only)
T1 sequence (P13945 whole entry): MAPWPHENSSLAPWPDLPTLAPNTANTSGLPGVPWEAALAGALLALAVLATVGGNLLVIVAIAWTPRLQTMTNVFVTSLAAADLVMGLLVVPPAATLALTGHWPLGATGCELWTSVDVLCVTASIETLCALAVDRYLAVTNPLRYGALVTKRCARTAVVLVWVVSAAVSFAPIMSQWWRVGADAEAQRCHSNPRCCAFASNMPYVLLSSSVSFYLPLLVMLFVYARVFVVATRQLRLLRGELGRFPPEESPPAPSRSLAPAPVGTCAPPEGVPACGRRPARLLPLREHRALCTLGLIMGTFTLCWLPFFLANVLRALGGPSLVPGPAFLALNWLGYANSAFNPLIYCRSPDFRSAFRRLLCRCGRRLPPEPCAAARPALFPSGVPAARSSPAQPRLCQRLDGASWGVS
Procedure: The effects on oxygen consumption were then assessed according to standard methods (e.g., those described herein).
(§1) Oxygen consumption was measured as described by Lowell et al. (supra) in twelve-week-old control, β3 -AR-deficient male mice, and β3 -AR-deficient knockout mice expressing the human β3-AR gene.

[2] = test system: β3 -AR; assay type: biochemical, mouse; conditions: for reduction of stimulatory effect on adenylate cyclase activity: β3 -AR-deficient vs wild type
Procedure: (§2) To determine the functional consequences of β3 -AR deficiency on β-adrenergic signalling, the effects of β-adrenergic agonists on adenylate cyclase activity and lipolysis were assessed. For determination of adenylate cyclase activity (FIG. 5), plasma membranes were obtained from isolated white adipocytes or interscapular brown adipose tissue, and then were incubated in the presence of various agonists. […] To assess lipolysis (FIGS. 6A and 6B), white adipocytes were isolated from epididymal fat pads, and then incubated in the presence of various agonists. Rates of lipolysis were determined by quantitating the release of glycerol.

[3] = test system: isolated white adipocytes; experiment: Lipolysis (glycerol release) in isolated white adipocytes; assay type: cell-based, mouse; conditions: +ADA
Procedure: as §2
For analysis of lipolysis, isolated white adipocytes (100 μl of a 10% isolate fat cell suspension) were incubated in a final volume of 500 μl, and glycerol release was measured over a fifteen minute period. […] Except where noted, the incubation medium consisted of a Krebs-Ringer-Hepes (30 mM) buffer (pH 7.4) supplemented with 2.5% bovine serum albumin (fraction V), 10 μM PIA (N^6 -[R-(-)-1-methyl-2-phenyl]adenosine), 1 unit/ml adenosine deaminase, and varying concentrations of agonists.

[4] = test system: β3 -AR; assay type: in vivo, mouse; conditions: for FFA: serum, fifteen minutes after injection
Procedure: (§3) To determine the effect of β3 -AR deficiency on β-adrenergicsignaling in vivo, various adrenergic agonists were administered to control and knockout mice, and the effects on serum levels of FFAs, glycerol, and thermogenesis were assessed.
(§4) Whole blood was collected and analyzed for blood glucose levels (One Touch Blood Glucose Meter, Lifescan, Inc., Milpitas, Calif.). Serum was then isolated and assayed for FFAs (NEFA C kit, Wako Pure Chemical Industries, Ltd.), glycerol (GPO-Trinder Kit, procedure 337, Sigma), and insulin (rat insulin kit, Linco Research Inc., St. Louis, Mo.) according to the manufacturers' protocols.

[5] = test system: β3 -AR; assay type: in vivo, mouse; conditions: for stimulated oxygen consumption: β3 -AR-deficient male mice vs control
Procedure: (§5) Mice that received norepinephrine were anesthetized with pentobarbital for the study.
as §1

[6] = test system: β3 -AR; experiment: Acute effect on plasma insulin and blood glucose; assay type: in vivo, mouse; conditions: β3 -AR-deficient mice; 1 mg/kg intraperitoneal
Excerpt: (§6) FIGS. 8A-B are graphs showing the acute effect of saline or CL 316,243 on plasma insulin and blood glucose concentrations. […] Blood was obtained from the tail fifteen minutes after […]. The results are expressed as the mean ±S.E. (+/+=seven mice, -/-=four mice).
as §4

[7] = test system: β3 -AR; experiment: Effect of a single dose on food intake; assay type: in vivo, mouse; conditions: β3 -AR-deficient mice; 1 mg/kg intraperitoneal; twenty-four hours
Procedure: (§7) FIG. 9 is a graph showing the effect of a single dose of CL 316,243 on food intake. […] The mice were housed individually during the test period, and results for each group are the mean of five animals (±S.E.). Food intake was determined during the twenty-four hours following CL 316,243 or saline treatment.
(§8) To acclimate the mice to injections and handling, saline was injected daily for three days preceding day zero of the study. The mice were housed individually during the study. Food was weighed before injection and twenty-four hours after, and the differences were assumed to represent grams of food eaten per day. The cages were inspected for food spillage, and none was noted.

[8] = target: T2, β3 -AR (Mus musculus, UniProt P25962); assay type: in vivo; parameters: endogenous in cells; host or cells: whole mice (control +/+ and beta-3-AR-deficient -/-, FVB background)
T2 sequence (P25962 whole entry): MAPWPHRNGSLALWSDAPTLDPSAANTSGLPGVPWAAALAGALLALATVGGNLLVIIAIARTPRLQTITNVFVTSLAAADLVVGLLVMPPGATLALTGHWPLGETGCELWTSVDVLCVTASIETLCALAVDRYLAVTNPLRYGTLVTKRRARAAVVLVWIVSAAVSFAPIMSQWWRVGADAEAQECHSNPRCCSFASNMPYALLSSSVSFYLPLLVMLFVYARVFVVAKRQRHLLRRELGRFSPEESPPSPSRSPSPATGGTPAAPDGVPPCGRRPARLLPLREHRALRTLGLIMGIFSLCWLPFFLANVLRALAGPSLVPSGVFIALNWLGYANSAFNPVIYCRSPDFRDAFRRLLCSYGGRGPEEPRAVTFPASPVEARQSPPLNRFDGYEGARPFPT
Procedure: as §3, §4

[9] = target: T2, β3 -AR; experiment: Effect of a single dose on food intake; assay type: in vivo; parameters: endogenous in cells; host or cells: whole mice (control +/+ and beta-3-AR-deficient -/-, FVB background); conditions: control mice; 1 mg/kg intraperitoneal; twenty-four hours
Procedure: as §7, §8

[10] = target: T2, β3 -AR; assay type: biochemical; parameters: plasma membranes of isolated white adipocytes (epididymal) or interscapular brown adipose tissue; -/- mice are null control; conditions: wild type mice; maximally effective / effective doses
Procedure: as §2

[11] = target: T2, β3 -AR; assay type: in vivo; parameters: plasma membranes of isolated white adipocytes (epididymal) or interscapular brown adipose tissue; -/- mice are null control; conditions: control mice; 1.0 mg/kg subcutaneously
Procedure: as §5, §1

[12] = target: T2, β3 -AR; experiment: Acute effect on plasma insulin and blood glucose; assay type: in vivo; parameters: plasma membranes of isolated white adipocytes (epididymal) or interscapular brown adipose tissue; -/- mice are null control; conditions: control mice; 1 mg/kg intraperitoneal, fifteen minutes
Excerpt: as §6, §4

CC(C)(C)NCC(O)COc1cccc2[nH]c(=O)[nH]c12 (stereo not shown) [CGP-12177]
increase in oxygen consumption [1]: twenty

C[C@H](Cc1ccc2c(c1)OC(C(=O)O)(C(=O)O)O2)NC[C@H](O)c1cccc(Cl)c1 [CL 316,243]
adenylate cyclase activity in membranes ([2]; β3 -AR-deficient mice, maximally effective doses): absent
lipolysis in adipocytes ([3]; wild type mice, +PIA): stimulated
lipolysis in adipocytes ([3]; β3 -AR-deficient mice, +PIA): absent
FFA ([4]; female -/-): 630 ± 140 µM
increase in serum FFA levels ([4]; β3 -AR-deficient mice): totally absent
increase in oxygen consumption ([5]; β3 -AR-deficient mice, 1.0 mg/kg subcutaneously): totally absent
effect on blood glucose [6]: completely without effect
effect on plasma insulin levels [6]: completely without effect
effect on food intake [7]: completely ineffective
increase in serum FFA levels ([8]; control mice): 3.2 fold
FFA ([8]; serum, fifteen minutes after injection, female +/+): 2,260 ± 350 μM
reduction in food intake [9]: forty-five
adenylate cyclase activity in membranes [10]: stimulated
increase in oxygen consumption [11]: 2 fold
increase in plasma insulin levels [12]: 140 fold
reduction in blood glucose [12]: fifty-six

C[C@H](Cc1ccccc1)Nc1ncnc2c1ncn2[C@@H]1O[C@H](CO)[C@@H](O)[C@H]1O [PIA, N^6-[R-(-)-1-methyl-2-phenyl]adenosine]
inhibition of isoproterenol-stimulated lipolysis ([3]; control adipocytes, with vs without PIA (10 μM)): only minimally inhibited

C=C[C@@]1(C)CC(=O)[C@]2(O)[C@@]3(C)[C@@H](O)CCC(C)(C)[C@@H]3[C@H](O)[C@H](OC(C)=O)[C@@]2(C)O1 [forskolin]
lipolysis in adipocytes ([3]; wild type mice, +PIA): stimulate lipolysis
lipolysis in adipocytes ([3]; β3 -AR-deficient mice, +PIA): stimulate lipolysis

CC(C)NCC(O)c1ccc(O)c(O)c1 (stereo not shown) [isoproterenol]
reduction of stimulatory effect on adenylate cyclase activity ([2]; membranes derived from brown adipose tissue): seventy
reduction of stimulatory effect on adenylate cyclase activity ([2]; membranes derived from isolated white adipocytes): eighty
stimulation of lipolysis ([3]; wild type adipocytes, maximally effective concentration, +PIA): about five
reduction of stimulated lipolysis ([3]; β3 -AR-deficient adipocytes, -PIA): about thirty-three
lipolysis in adipocytes ([3]; β3 -AR-deficient mice, +PIA): absent
Glycerol ([4]; mouse, in vivo): 239 ± 15 µM
FFA ([4]; male -/-): 1.510 ± 20 µM
stimulated oxygen consumption ([5]; 0.3 mg/kg subcutaneously, awake): not significantly reduced

NC[C@H](O)c1ccc(O)c(O)c1 [norepinephrine]
stimulated oxygen consumption ([5]; 0.6 mg/kg subcutaneously, anesthetized with pentobarbital): not significantly reduced

Adrenocorticotropic hormone (SYSMEHFRWGKPVGKKRRPVKVYPNGAEDESAEAFPLEF; Corticotropin; UniProt P01189 138-176, looked up) [ACTH, hormone that stimulates lipolysis via a seven-transmembrane receptor Gαs -adenylate cyclase-coupled mechanism]
lipolysis in adipocytes ([3]; wild type mice, +PIA): increase lipolysis
lipolysis in adipocytes ([3]; β3 -AR-deficient mice, +PIA): increase lipolysis
